From ChEMBL document CHEMBL1201862, “PubChem BioAssay data set” (2004)
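Assay format: 96-well plates, 48-hour exposure. The concentration for 50% growth inhibition is given as GI50.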 Calls of active or inactive are those of the source. Rule as the data show it: active = GI50 up to about 1.1 µM and inactive = higher.

Assays:
Assay in all cases: inhibition of tumour cell growth, NCI panel, 48 h
786-0 = system: 786-0
A498 = system: A498
ACHN = system: ACHN
COLO 205 = system: COLO 205
HL-60 = system: HL-60
HOP-92 = system: HOP-92
IGROV-1 = system: IGROV-1
LOX IMVI = system: LOX IMVI
M14 = system: M14
MOLT-4 = system: MOLT-4
Malme-3M = system: Malme-3M
NCI-H226 = system: NCI-H226
NCI-H522 = system: NCI-H522
SF-268 = system: SF-268
SNB-75 = system: SNB-75
SW-620 = system: SW-620
UO-31 = system: UO-31

Row | Compound | GI50 (786-0) | GI50 (A498) | GI50 (ACHN) | GI50 (COLO 205) | GI50 (HL-60) | GI50 (HOP-92) | GI50 (IGROV-1) | GI50 (LOX IMVI) | GI50 (M14) | GI50 (MOLT-4) | GI50 (Malme-3M) | GI50 (NCI-H226) | GI50 (NCI-H522) | GI50 (SF-268) | GI50 (SNB-75) | GI50 (SW-620) | GI50 (UO-31)
1 | OCC(O)COc1c(Cl)ccc(Cl)c1Cl (stereo not drawn) | > 100 µM (inactive) | > 100 µM (inactive) | > 100 µM (inactive) | > 100 µM (inactive) | > 100 µM (inactive) | > 100 µM (inactive) | > 100 µM (inactive) | > 100 µM (inactive) | > 100 µM (inactive) | > 100 µM (inactive) | > 100 µM (inactive) | > 100 µM (inactive) | > 100 µM (inactive) | > 100 µM (inactive) | > 100 µM (inactive) | > 100 µM (inactive) | > 100 µM (inactive)
2 | O=C(CCN1CCC(CCO)CC1)Nc1ccc2c(c1)C(=O)c1ccc(NC(=O)CCN3CCC(CCO)CC3)cc1C2=O | 6.7 µM (inactive) | 19.9 µM (inactive) | 41.9 µM (inactive) | 10.7 µM (inactive) | 24.6 µM (inactive) | 29.8 µM (inactive) | 24.7 µM (inactive) | 8.39 µM (inactive) | – | 4.13 µM (inactive) | 11 µM (inactive) | 4.86 µM (inactive) | 11.8 µM (inactive) | 11.3 µM (inactive) | 20.2 µM (inactive) | 4.79 µM (inactive) | 34.4 µM (inactive)
3 | CN1C(=O)N(C)C2(O)c3ccccc3C(=O)C12O (stereo not drawn) | > 100 µM (inactive) | > 100 µM (inactive) | > 100 µM (inactive) | > 100 µM (inactive) | – | – | > 100 µM (inactive) | > 100 µM (inactive) | > 100 µM (inactive) | > 100 µM (inactive) | > 100 µM (inactive) | > 100 µM (inactive) | > 100 µM (inactive) | > 100 µM (inactive) | > 100 µM (inactive) | > 100 µM (inactive) | > 100 µM (inactive)
4 | Cc1ccc(S(=O)(=O)c2c(N)n(CCN(C)C)c3nc4ccccc4nc23)cc1 | > 100 µM (inactive) | – | > 100 µM (inactive) | > 100 µM (inactive) | > 100 µM (inactive) | > 100 µM (inactive) | > 100 µM (inactive) | – | > 100 µM (inactive) | > 100 µM (inactive) | > 100 µM (inactive) | > 100 µM (inactive) | 3.13 µM (inactive) | > 100 µM (inactive) | > 100 µM (inactive) | – | > 100 µM (inactive)
5 | CC(=O)OC1(C(C)=O)CC2(c3ccccc3)OC1(c1ccccc1)c1ccccc12 (stereo not drawn) | 31 µM (inactive) | – | 16.6 µM (inactive) | 7.67 µM (inactive) | – | 17.7 µM (inactive) | 4.91 µM (inactive) | 16.4 µM (inactive) | 14.4 µM (inactive) | 5.81 µM (inactive) | 18.6 µM (inactive) | 5.98 µM (inactive) | 4.26 µM (inactive) | 52.5 µM (inactive) | 59.6 µM (inactive) | 16.7 µM (inactive) | 12 µM (inactive)
6 | CC(=O)Nc1ccc(/C=C/C(=O)c2sc(C(N)=S)nc2C)cc1 | > 100 µM (inactive) | > 100 µM (inactive) | – | > 100 µM (inactive) | > 100 µM (inactive) | > 100 µM (inactive) | > 100 µM (inactive) | > 100 µM (inactive) | – | > 100 µM (inactive) | > 100 µM (inactive) | > 100 µM (inactive) | > 100 µM (inactive) | > 100 µM (inactive) | > 100 µM (inactive) | > 100 µM (inactive) | > 100 µM (inactive)
7 | CC(C)(CN1CCCCC1)C(=O)CC(SCCS(=O)(=O)O)c1ccc(Br)cc1 (stereo not drawn) | 1.26 µM (inactive) | 2.1 µM (inactive) | 1.67 µM (inactive) | 1.45 µM (inactive) | – | 0.578 µM (active) | 1.97 µM (inactive) | – | 1.59 µM (inactive) | 2.23 µM (inactive) | 1.39 µM (inactive) | 3.26 µM (inactive) | 1.15 µM (inactive) | 2.61 µM (inactive) | 2.07 µM (inactive) | – | 1.47 µM (inactive)
8 | C[C@@H]1[C@@H]2[C@@H](C=C3C4CCC5Cc6nc7c(nc6C[C@@]5(C)C4C[C@H](O)[C@]32CO)CC2CCC3C4=C[C@H]5O[C@@]6(OC(C)(CO)C[C@@H]6O)[C@H](C)[C@@]5(O)[C@]4(C)[C@@H](O)CC3[C@]2(C)C7)O[C@]12CCC(C)(C)O2 (stereo partly drawn) | 0.00262 µM (active) | 0.00883 µM (active) | 0.171 µM (active) | 0.0809 µM (active) | 0.00692 µM (active) | 0.00815 µM (active) | 0.387 µM (active) | – | 0.0182 µM (active) | 0.00505 µM (active) | 0.101 µM (active) | 0.0225 µM (active) | 0.579 µM (active) | 0.0208 µM (active) | 0.00038 µM (active) | 0.0225 µM (active) | 0.0575 µM (active)
9 | CNC(=O)OCc1nc(SC2CCCCO2)n(C)c1COC(=O)NC (stereo not drawn) | > 100 µM (inactive) | > 100 µM (inactive) | – | > 100 µM (inactive) | > 100 µM (inactive) | > 100 µM (inactive) | > 100 µM (inactive) | > 100 µM (inactive) | > 100 µM (inactive) | > 100 µM (inactive) | > 100 µM (inactive) | > 100 µM (inactive) | > 100 µM (inactive) | > 100 µM (inactive) | > 100 µM (inactive) | > 100 µM (inactive) | > 100 µM (inactive)
